# Experimental data as given in PubChem BioAssay (NCI).
#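 Abbreviation: GI50, concentration required for 50% inhibition of growth. TGI: total growth inhibition.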
# Assays:
# Experiment in all cases: DTP human tumour cell line panel, 384-well format
# 786-0 renal = tested on: 786-0 renal
# A498 renal = tested on: A498 renal
# A549 NSCLC = tested on: A549 NSCLC
# ACHN renal = tested on: ACHN renal
# BT-549 breast = tested on: BT-549 breast
# CAKI-1 renal = tested on: CAKI-1 renal
# CCRF-CEM leukemia = tested on: CCRF-CEM leukemia
# COLO 205 colon = tested on: COLO 205 colon
# DU-145 prostate = tested on: DU-145 prostate
# EKVX NSCLC = tested on: EKVX NSCLC
# HCT-116 colon = tested on: HCT-116 colon
# HCT-15 colon = tested on: HCT-15 colon
# HL-60(TB) leukemia = tested on: HL-60(TB) leukemia
# HOP-62 NSCLC = tested on: HOP-62 NSCLC
# HOP-92 NSCLC = tested on: HOP-92 NSCLC
# HS 578T breast = tested on: HS 578T breast
# HT29 colon = tested on: HT29 colon
# IGROV1 ovarian = tested on: IGROV1 ovarian
# K-562 leukemia = tested on: K-562 leukemia
# KM12 colon = tested on: KM12 colon
# LOX IMVI melanoma = tested on: LOX IMVI melanoma
# M14 melanoma = tested on: M14 melanoma
# MALME-3M melanoma = tested on: MALME-3M melanoma
# MCF7 breast = tested on: MCF7 breast
# MDA-MB-435 melanoma = tested on: MDA-MB-435 melanoma
# MDA-MB-468 breast = tested on: MDA-MB-468 breast
# MOLT-4 leukemia = tested on: MOLT-4 leukemia
# NCI-H226 lung = tested on: NCI-H226 lung
# NCI-H23 lung = tested on: NCI-H23 lung
# NCI-H322M lung = tested on: NCI-H322M lung
# NCI-H460 NSCLC = tested on: NCI-H460 NSCLC
# NCI-H522 lung = tested on: NCI-H522 lung
# NCI/ADR-RES ovarian = tested on: NCI/ADR-RES ovarian
# OVCAR-3 ovarian = tested on: OVCAR-3 ovarian
# OVCAR-4 ovarian = tested on: OVCAR-4 ovarian
# OVCAR-8 ovarian = tested on: OVCAR-8 ovarian
# PC-3 prostate = tested on: PC-3 prostate
# RPMI-8226 leukemia = tested on: RPMI-8226 leukemia
# RXF 393 renal = tested on: RXF 393 renal
# SF-268 CNS = tested on: SF-268 CNS
# SF-295 CNS = tested on: SF-295 CNS
# SF-539 CNS = tested on: SF-539 CNS
# SK-MEL-2 melanoma = tested on: SK-MEL-2 melanoma
# SK-MEL-28 melanoma = tested on: SK-MEL-28 melanoma
# SK-MEL-5 melanoma = tested on: SK-MEL-5 melanoma
# SK-OV-3 ovarian = tested on: SK-OV-3 ovarian
# SN12C renal = tested on: SN12C renal
# SNB-19 CNS = tested on: SNB-19 CNS
# SNB-75 CNS = tested on: SNB-75 CNS
# SW-620 colon = tested on: SW-620 colon
# TK-10 renal = tested on: TK-10 renal
# U251 glioblastoma = tested on: U251 glioblastoma
# UACC-257 melanoma = tested on: UACC-257 melanoma
# UACC-62 melanoma = tested on: UACC-62 melanoma
smiles,measurement,setting,value
CCCOC(=O)c1nc(N(CC2CCCCC2)C(=O)NC)sc1/N=C/c1ccccc1,GI50,786-0 renal,6.22 µM
same,TGI,786-0 renal,18.7 µM
same,GI50,A498 renal,4.1 µM
same,TGI,A498 renal,14.7 µM
same,GI50,A549 NSCLC,9.71 µM
same,TGI,A549 NSCLC,22 µM
same,GI50,ACHN renal,9.87 µM
same,TGI,ACHN renal,21.9 µM
same,GI50,BT-549 breast,4.02 µM
same,TGI,BT-549 breast,12.4 µM
same,GI50,CAKI-1 renal,5.18 µM
same,TGI,CAKI-1 renal,18.1 µM
same,GI50,CCRF-CEM leukemia,2.03 µM
same,TGI,CCRF-CEM leukemia,3.76 µM
same,GI50,COLO 205 colon,4.56 µM
same,TGI,COLO 205 colon,16.1 µM
same,GI50,DU-145 prostate,12.3 µM
same,TGI,DU-145 prostate,27.5 µM
same,GI50,EKVX NSCLC,8.12 µM
same,TGI,EKVX NSCLC,20.7 µM
same,GI50,HCT-116 colon,3.2 µM
same,TGI,HCT-116 colon,9.48 µM
same,GI50,HCT-15 colon,2.83 µM
same,TGI,HCT-15 colon,8.63 µM
same,GI50,HL-60(TB) leukemia,1.73 µM
same,TGI,HL-60(TB) leukemia,3.11 µM
same,GI50,HOP-62 NSCLC,2.45 µM
same,TGI,HOP-62 NSCLC,7.26 µM
same,GI50,HOP-92 NSCLC,4.36 µM
same,TGI,HOP-92 NSCLC,14.6 µM
same,GI50,HS 578T breast,2.22 µM
same,TGI,HS 578T breast,5.66 µM
same,GI50,HT29 colon,2.58 µM
same,TGI,HT29 colon,6.98 µM
same,GI50,IGROV1 ovarian,3.71 µM
same,TGI,IGROV1 ovarian,14.4 µM
same,GI50,K-562 leukemia,3.37 µM
same,TGI,K-562 leukemia,10.7 µM
same,GI50,KM12 colon,3.26 µM
same,TGI,KM12 colon,11.8 µM
same,GI50,LOX IMVI melanoma,3.83 µM
same,TGI,LOX IMVI melanoma,11.3 µM
same,GI50,M14 melanoma,3.46 µM
same,TGI,M14 melanoma,10.9 µM
same,GI50,MALME-3M melanoma,3.51 µM
same,TGI,MALME-3M melanoma,9.53 µM
same,GI50,MCF7 breast,2.66 µM
same,TGI,MCF7 breast,7.98 µM
same,GI50,MDA-MB-435 melanoma,1.79 µM
same,TGI,MDA-MB-435 melanoma,4.03 µM
same,GI50,MDA-MB-468 breast,2.13 µM
same,TGI,MDA-MB-468 breast,4.05 µM
same,GI50,MOLT-4 leukemia,1.76 µM
same,TGI,MOLT-4 leukemia,3.2 µM
same,GI50,NCI-H226 lung,5.1 µM
same,TGI,NCI-H226 lung,18.1 µM
same,GI50,NCI-H23 lung,3.39 µM
same,TGI,NCI-H23 lung,11.4 µM
same,GI50,NCI-H322M lung,31.3 µM
same,TGI,NCI-H322M lung,> 100 µM
same,GI50,NCI-H460 NSCLC,2.56 µM
same,TGI,NCI-H460 NSCLC,6.26 µM
same,GI50,NCI-H522 lung,1.8 µM
same,TGI,NCI-H522 lung,5.05 µM
same,GI50,NCI/ADR-RES ovarian,2.51 µM
same,TGI,NCI/ADR-RES ovarian,8.09 µM
same,GI50,OVCAR-3 ovarian,2.01 µM
same,TGI,OVCAR-3 ovarian,4.27 µM
same,GI50,OVCAR-4 ovarian,2.74 µM
same,TGI,OVCAR-4 ovarian,12.5 µM
same,GI50,OVCAR-8 ovarian,10.7 µM
same,TGI,OVCAR-8 ovarian,23.1 µM
same,GI50,PC-3 prostate,3.58 µM
same,TGI,PC-3 prostate,12.8 µM
same,GI50,RPMI-8226 leukemia,1.61 µM
same,TGI,RPMI-8226 leukemia,3.22 µM
same,GI50,RXF 393 renal,2.65 µM
same,TGI,RXF 393 renal,5.99 µM
same,GI50,SF-268 CNS,5.35 µM
same,TGI,SF-268 CNS,15.5 µM
same,GI50,SF-295 CNS,2.16 µM
same,TGI,SF-295 CNS,5.51 µM
same,GI50,SF-539 CNS,4.85 µM
same,TGI,SF-539 CNS,16.6 µM
same,GI50,SK-MEL-2 melanoma,2.34 µM
same,TGI,SK-MEL-2 melanoma,4.27 µM
same,GI50,SK-MEL-28 melanoma,5.74 µM
same,TGI,SK-MEL-28 melanoma,16.9 µM
same,GI50,SK-MEL-5 melanoma,2.43 µM
same,TGI,SK-MEL-5 melanoma,11.3 µM
same,GI50,SK-OV-3 ovarian,3.49 µM
same,TGI,SK-OV-3 ovarian,14.7 µM
same,GI50,SN12C renal,6.86 µM
same,TGI,SN12C renal,19.6 µM
same,GI50,SNB-19 CNS,5.73 µM
same,TGI,SNB-19 CNS,17.4 µM
same,GI50,SNB-75 CNS,2.55 µM
same,TGI,SNB-75 CNS,7.92 µM
same,GI50,SW-620 colon,3.5 µM
same,TGI,SW-620 colon,13.5 µM
same,GI50,TK-10 renal,8.53 µM
same,TGI,TK-10 renal,21.8 µM
same,GI50,U251 glioblastoma,7.26 µM
same,TGI,U251 glioblastoma,21.2 µM
same,GI50,UACC-257 melanoma,7.33 µM
same,TGI,UACC-257 melanoma,29.1 µM
same,GI50,UACC-62 melanoma,3.48 µM
same,TGI,UACC-62 melanoma,14 µM
